Measured values from patent US9073855B2, “BCL-2 selective apoptosis-inducing agents for the treatment of cancer and immune diseases” (AbbVie Inc., priority 2008, dated 2015).

How the values were obtained:
FL5.12/Bcl-2 cells = assay: FL5.12/Bcl-2 cell viability assay under IL-3 withdrawal (CellTitre Glo); type: cell-based, murine; details: Mus musculus, IL-3 withdrawn 48 hrs, then 24 hrs with compound
Excerpt: FL5.12 is an IL-3 dependent prolymphocytic murine cell line that undergoes apoptosis upon IL-3 withdrawal as a result of the upregulation of pro-apoptotic Bcl-2 proteins such as Bim and Puma. Stable overexpression of anti-apoptotic Bcl-2 protein (FL5.12/Bcl-2) protects against apoptosis induced by IL-3 withdrawal by sequestration of Bim and Puma. […] The ability of compounds to kill FL5.12/Bcl-2 cells upon IL-3 withdrawal is a direct measure of the compounds' ability to inhibit anti-apoptotic Bcl-2 protein function.
Wild type FL5.12/Bcl-2 overexpressing stable transfectants were cultured in RPMI-1640 supplemented with 2 mM L-glutamine, 10% FBS, 1 mM sodium pyruvate, 2 mM HEPES, 1% penicillin/streptomycin (Invitrogen), 57 μM β-ME, and 10% WEHI-3B conditioned medium (source of IL-3) and maintained at 37° C. containing 5% CO2. 1×10^6 cells/ml were washed 1×PBS and resuspended in medium not supplemented with 10% WEHI-3B for 48 hrs prior to cytotoxicity assays. Cells were then treated for an additional 24 hrs in the presence of various concentrations of the indicated compounds. Cell viability was assessed by CellTitre Glo assay (Promega Corp.) according to the manufacturer's recommendations.

GST-Bcl-2 = GST-Bcl-2 (Homo sapiens, UniProt P10415); assay: TR-FRET binding assay, GST-Bcl-2 with F-Bak peptide probe; details: for Ki: TR-FRET Binding Affinity, GST-Bcl-2, F-Bak peptide probe; for Binding selectivity ratio (Bcl-XL Ki/Bcl-2 Ki): ratio of TR-FRET Ki values, Bcl-XL over Bcl-2
Sequence of GST-Bcl-2 (P10415 whole entry): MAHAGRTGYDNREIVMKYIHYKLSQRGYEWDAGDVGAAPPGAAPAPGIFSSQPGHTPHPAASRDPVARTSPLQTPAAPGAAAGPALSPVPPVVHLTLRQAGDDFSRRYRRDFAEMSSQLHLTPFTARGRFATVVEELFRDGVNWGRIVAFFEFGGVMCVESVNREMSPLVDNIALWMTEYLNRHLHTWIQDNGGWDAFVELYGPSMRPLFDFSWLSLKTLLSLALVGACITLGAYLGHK
Summary of the method: (§1)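 Compounds were serially diluted in DMSO from a 50 μM starting solution (2× the starting concentration; 10% DMSO). Plates were incubated for 3 h at room temperature, and TR-FRET was read with 340/35 nm excitation and emission at 520/525 nm (F-Bak) and 495/510 nm (Tb antibody). Ki values were calculated using Wang's competitive-binding equation.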

GST-Bcl-XL = GST-Bcl-XL (Homo sapiens, UniProt Q07817); assay: TR-FRET binding assay, GST-Bcl-XL with F-Bak peptide probe; details: TR-FRET Binding Affinity, GST-Bcl-XL, F-Bak peptide probe
Sequence of GST-Bcl-XL (Q07817 whole entry): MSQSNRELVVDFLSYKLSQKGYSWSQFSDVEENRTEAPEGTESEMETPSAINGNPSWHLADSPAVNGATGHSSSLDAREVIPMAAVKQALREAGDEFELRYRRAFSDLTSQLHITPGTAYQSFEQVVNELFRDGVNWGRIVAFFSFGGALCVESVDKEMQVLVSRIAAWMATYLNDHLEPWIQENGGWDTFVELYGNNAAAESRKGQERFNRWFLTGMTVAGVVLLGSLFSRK
Summary of the method: as §1

CC1(C)CCC(CN2CCN(c3ccc(C(=O)NS(=O)(=O)c4cnc(NCC5CCOCC5)c(Br)c4)c(Oc4cccc5[nH]ccc45)c3)CC2)=C(c2ccc(Cl)cc2)C1 [Example 325, N-({5-bromo-6-[(tetrahydro-2H-pyran-4-ylmethyl)amino]pyridin-3-yl}sulfonyl)-4-(4-{[2-(4-chlorophenyl)-4,4-dimethylcyclohex-1-en-1-yl]methyl}piperazin-1-yl)-2-(1H-indol-4-yloxy)benzamide]
EC50 (FL5.12/Bcl-2 cells): 256 nM
Ki (GST-Bcl-2): 2.33 nM
Ki (GST-Bcl-XL): > 660 nM

CC1(C)CCC(CN2CCN(c3ccc(C(=O)NS(=O)(=O)c4ccc(NC5CCN(C6CCOCC6)CC5)c([N+](=O)[O-])c4)c(Oc4cccnc4)c3)CC2)=C(c2ccc(Cl)cc2)C1 [Example 398, 4-(4-{[2-(4-chlorophenyl)-4,4-dimethylcyclohex-1-en-1-yl]methyl}piperazin-1-yl)-N-({3-nitro-4-[(1-tetrahydro-2H-pyran-4-ylpiperidin-4-yl)amino]phenyl}sulfonyl)-2-(pyridin-3-yloxy)benzamide]
EC50 (FL5.12/Bcl-2 cells): 334 nM
Ki (GST-Bcl-2): 1.23 nM
Binding selectivity ratio (Bcl-XL Ki/Bcl-2 Ki) (GST-Bcl-2): 67.7
Ki (GST-Bcl-XL): 83.4 nM

CC1(C)CCC(CN2CCN(c3ccc(C(=O)NS(=O)(=O)c4ccc(NCCC(F)(F)F)c([N+](=O)[O-])c4)c(Oc4ccc5[nH]ccc5c4)c3)CC2)=C(c2ccc(Cl)cc2)C1 [Example 324, 4-(4-{[2-(4-chlorophenyl)-4,4-dimethylcyclohex-1-en-1-yl]methyl}piperazin-1-yl)-2-(1H-indol-5-yloxy)-N-({3-nitro-4-[(3,3,3-trifluoropropyl)amino]phenyl}sulfonyl)benzamide]
EC50 (FL5.12/Bcl-2 cells): 134 nM
Ki (GST-Bcl-2): 1.48 nM
Ki (GST-Bcl-XL): > 660 nM

CC1(C)CCC(CN2CCN(c3ccc(C(=O)NS(=O)(=O)c4cnc(OCCN5CCOCC5)c(C#N)c4)c(Oc4ccc5[nH]ccc5c4)c3)CC2)=C(c2ccc(Cl)cc2)C1 [Example 388, 4-(4-{[2-(4-chlorophenyl)-4,4-dimethylcyclohex-1-en-1-yl]methyl}piperazin-1-yl)-N-{[5-cyano-6-(2-morpholin-4-ylethoxy)pyridin-3-yl]sulfonyl}-2-(1H-indol-5-yloxy)benzamide]
EC50 (FL5.12/Bcl-2 cells): 82.9 nM
Ki (GST-Bcl-2): 0.188 nM
Ki (GST-Bcl-XL): 34.8 nM

CC1(C)CCC(CN2CCN(c3ccc(C(=O)NS(=O)(=O)c4ccc(NC5CCN(C6Cc7ccccc7C6)CC5)c([N+](=O)[O-])c4)c(Oc4ccc5[nH]ccc5c4)c3)CC2)=C(c2ccc(Cl)cc2)C1 [Example 228, 4-(4-{[2-(4-chlorophenyl)-4,4-dimethylcyclohex-1-en-1-yl]methyl}piperazin-1-yl)-N-[(4-{[1-(2,3-dihydro-1H-inden-2-yl)piperidin-4-yl]amino}-3-nitrophenyl)sulfonyl]-2-(1H-indol-5-yloxy)benzamide]
EC50 (FL5.12/Bcl-2 cells): > 500 nM
Ki (GST-Bcl-2): 4.67 nM
Ki (GST-Bcl-XL): > 660 nM

CNc1ccc(S(=O)(=O)NC(=O)c2ccc(N3CCN(CC4=C(c5ccc(Cl)cc5)CC(C)(C)CC4)CC3)cc2Oc2cccc3[nH]ccc23)cc1[N+](=O)[O-] [Example 246, 4-(4-{[2-(4-chlorophenyl)-4,4-dimethylcyclohex-1-en-1-yl]methyl}piperazin-1-yl)-2-(1H-indol-4-yloxy)-N-{[4-(methylamino)-3-nitrophenyl]sulfonyl}benzamide]
EC50 (FL5.12/Bcl-2 cells): 48 nM
Ki (GST-Bcl-2): 0.783 nM
Ki (GST-Bcl-XL): 384 nM

CC1(C)CCC(CN2CCN(c3ccc(C(=O)NS(=O)(=O)c4cnc(OCC5(F)CCOCC5)c(Cl)c4)c(Oc4cccc5[nH]ncc45)c3)CC2)=C(c2ccc(Cl)cc2)C1 [Example 404, N-({5-chloro-6-[(4-fluorotetrahydro-2H-pyran-4-yl)methoxy]pyridin-3-yl}sulfonyl)-4-(4-{[2-(4-chlorophenyl)-4,4-dimethylcyclohex-1-en-1-yl]methyl}piperazin-1-yl)-2-(1H-indazol-4-yloxy)benzamide]
EC50 (FL5.12/Bcl-2 cells): 2.34 nM
Ki (GST-Bcl-2): 0.012 nM
Binding selectivity ratio (Bcl-XL Ki/Bcl-2 Ki) (GST-Bcl-2): 2423.5
Ki (GST-Bcl-XL): 30.3 nM

COC1CCC(Nc2ccc(S(=O)(=O)NC(=O)c3ccc(N4CCN(CC5=C(c6ccc(Cl)cc6)CC(C)(C)CC5)CC4)cc3Oc3ccc4[nH]ccc4c3)cc2[N+](=O)[O-])CC1 (centres unmarked) [Example 265, 4-(4-{[2-(4-chlorophenyl)-4,4-dimethylcyclohex-1-en-1-yl]methyl}piperazin-1-yl)-2-(1H-indol-5-yloxy)-N-({4-[(4-methoxycyclohexyl)amino]-3-nitrophenyl}sulfonyl)benzamide]
EC50 (FL5.12/Bcl-2 cells): 244 nM
Ki (GST-Bcl-2): 1.7 nM
Ki (GST-Bcl-XL): > 660 nM

CC1(C)CCC(CN2CCN(c3ccc(C(=O)NS(=O)(=O)c4ccc(NN5CCOCC5)c([N+](=O)[O-])c4)c(Oc4ccc5[nH]ccc5c4)c3)CC2)=C(c2ccc(Cl)cc2)C1 [Example 260, 4-(4-{[2-(4-chlorophenyl)-4,4-dimethylcyclohex-1-en-1-yl]methyl}piperazin-1-yl)-2-(1H-indol-5-yloxy)-N-{[4-(morpholin-4-ylamino)-3-nitrophenyl]sulfonyl}benzamide]
EC50 (FL5.12/Bcl-2 cells): 59.4 nM
Ki (GST-Bcl-2): 1.09 nM
Ki (GST-Bcl-XL): > 660 nM

CC1(C)CCC(CN2CCN(c3ccc(C(=O)NS(=O)(=O)c4ccc(NCCCN5CCS(=O)(=O)CC5)c([N+](=O)[O-])c4)c(Oc4ccc5[nH]ccc5c4)c3)CC2)=C(c2ccc(Cl)cc2)C1 [Example 266, 4-(4-{[2-(4-chlorophenyl)-4,4-dimethylcyclohex-1-en-1-yl]methyl}piperazin-1-yl)-N-[(4-{[3-(1,1-dioxidothiomorpholin-4-yl)propyl]amino}-3-nitrophenyl)sulfonyl]-2-(1H-indol-5-yloxy)benzamide]
EC50 (FL5.12/Bcl-2 cells): 11.5 nM
Ki (GST-Bcl-2): 0.183 nM
Ki (GST-Bcl-XL): > 660 nM

COCCCNc1ccc(S(=O)(=O)NC(=O)c2ccc(N3CCN(CC4=C(c5ccc(Cl)cc5)CC(C)(C)CC4)CC3)cc2Oc2ccc3[nH]ccc3c2)cc1[N+](=O)[O-] [Example 317, 4-(4-{[2-(4-chlorophenyl)-4,4-dimethylcyclohex-1-en-1-yl]methyl}piperazin-1-yl)-2-(1H-indol-5-yloxy)-N-({4-[(3-methoxypropyl)amino]-3-nitrophenyl}sulfonyl)benzamide]
EC50 (FL5.12/Bcl-2 cells): 83.1 nM
Ki (GST-Bcl-2): 2.8 nM
Ki (GST-Bcl-XL): > 660 nM

CC1(C)CC(c2ccc(Cl)cc2)=C(CN2CCN(c3ccc(C(=O)NS(=O)(=O)c4ccc(NCC5CCOCC5)c([N+](=O)[O-])c4)c(Oc4ccc5[nH]ccc5c4)c3)CC2)CO1 [Example 182, 4-(4-{[4-(4-chlorophenyl)-6,6-dimethyl-5,6-dihydro-2H-pyran-3-yl]methyl}piperazin-1-yl)-2-(1H-indol-5-yloxy)-N-({3-nitro-4-[(tetrahydro-2H-pyran-4-ylmethyl)amino]phenyl}sulfonyl)benzamide]
EC50 (FL5.12/Bcl-2 cells): 12.4 nM
Ki (GST-Bcl-2): 0.087 nM
Ki (GST-Bcl-XL): > 660 nM

CC1(C)CCC(CN2CCN(c3ccc(C(=O)NS(=O)(=O)c4ccc(NCC5CCOCC5)c(S(=O)(=O)C(F)(F)F)c4)c(Oc4cccc5[nH]ccc45)c3)CC2)=C(c2ccc(Cl)cc2)C1 [Example 303, 4-(4-{[2-(4-chlorophenyl)-4,4-dimethylcyclohex-1-en-1-yl]methyl}piperazin-1-yl)-2-(1H-indol-4-yloxy)-N-({4-[(tetrahydro-2H-pyran-4-ylmethyl)amino]-3-[(trifluoromethyl)sulfonyl]phenyl}sulfonyl)benzamide]
EC50 (FL5.12/Bcl-2 cells): > 500 nM
Ki (GST-Bcl-2): 1.48 nM
Ki (GST-Bcl-XL): > 660 nM
